Patent US12398400B2, “Herbicide-resistant acetyl-CoA carboxylase (ACC) mutant and use thereof” (priority 2020, dated 2025)

How the values were obtained:
Assay type in all cases: in vivo
[1] = tested on: C2186R edited Oryza sativa plants; assay: Herbicide spray tolerance of C2186R edited plants; details: for tolerance compared with wild-type control: 5 g.a.i./mu, 14 d later, FIG. 6
Procedure: (§1) Multiple Oryza sativa varieties such as Wanzhijing 006, Nanjing 9108, and Jiahe 218 were used as experimental materials. The base editor constructed above was transformed into the Oryza sativa plants by A. tumefaciens to obtain gene-edited plants. Emerging seedlings were screened with a sethoxydim-containing medium at a concentration of SET-2: 2 mg/L. Or, edited seedlings were planted in a cultivation room. The edited seedlings and the control plants were sprayed with sethoxydim at a concentration of 0.5 g/L (corresponding to a field application dosage of 10 g. a.i/mu), and a survival rate of the seedlings was counted 10 d later.
(§2) Through screening cultivation, herbicide-resistant plants were screened out on a sethoxydim-containing medium. […] In addition, herbicide-resistant plants were also screened out in the cultivation room.
(§3) The I1879V and C2186R edited Oryza sativa plants obtained in Example 1 were planted, and the resistance to other types of herbicides was tested, such as phenthodim, quizalofop-p, fenoxaprop-p-ethyl, clethodim, haloxyfop-p-methyl, fenoxaprop, and butyclofen.
(§4) Dibble Oryza sativa plants at the seedling stage in the field were selected and sprayed with phenthodim at 20 g.a.i./mu (4 times a recommended dosage), and then results were observed.
(§5) Quizalofop-p and fenoxaprop-p-ethyl were each applied at 5 g.a.i./mu to I1879V edited plants and C2186R edited plants, and results were observed 14 d later.

[2] = tested on: I1879V edited Oryza sativa plants; assay: Herbicide spray tolerance of I1879V edited plants; details: for tolerance compared with wild-type control: 5 g.a.i./mu, FIG. 6; for phytotoxicity observed: field seedlings
Procedure: as §1
(§6) For I1879V edited Oryza sativa plants, the dosage of sethoxydim was further increased to a corresponding field application dosage of 15 g. a.i/mu. The dosage of sethoxydim was further increased to 30 g. a.i/mu.
as §3, §4, §5
The tolerance of the I1879V edited plants to clethodim, haloxyfop-p-methyl, fenoxaprop, and butyclofen was tested, where the clethodim, haloxyfop-p-methyl, and fenoxaprop were each applied at concentrations of 5 g.a.i./mu (1×) and 10 g.a.i./mu (2×); and the butyclofen was applied at concentrations of 10 g.a.i./mu (1×) and 20 g.a.i./mu (2×). After the herbicide was applied for 20 d, the growth of the edited plants was observed and the herbicide resistance of the edited plants was counted.

[3] = tested on: I1879V edited Oryza sativa plants; assay: Screening of emerging seedlings on sethoxydim-containing medium; details: 2 mg/L, FIG. 2
Procedure: as §1, §2

[4] = tested on: wild-type Oryza sativa plants; assay: Herbicide spray on wild-type control plants; details: for phytotoxicity observed: field seedlings
Procedure: as §1, §6, §4

[5] = 15 g. a.i/mu, 14 d later, FIG. 4
[6] = 20 g.a.i./mu (4 times recommended dosage), 7 d after spraying
[7] = 20 g.a.i./mu, 20 d after application, FIG. 5

## C[C@@H](Oc1ccc(Oc2cnc3cc(Cl)ccc3n2)cc1)C(=O)O [Quizalofop-p, quizalofop-p]
[1]
  tolerance compared with wild-type control: failed to produce tolerance
[2]; 14 d later
  tolerance compared with wild-type control: failed to produce tolerance

## CCOC(=O)[C@@H](C)Oc1ccc(Oc2nc3ccc(Cl)cc3o2)cc1 [fenoxaprop-p-ethyl]
[1]
  tolerance compared with wild-type control: failed to produce tolerance
[2]; 14 d later
  tolerance compared with wild-type control: failed to produce tolerance

## CCC/C(=N\OCC)C1=C(O)CC(CC(C)SCC)CC1=O (stereo not drawn) [sethoxydim]
[3]
  herbicide tolerance of edited seedlings on herbicide-containing medium: able to tolerate the herbicide
[1]; sprayed at 0.5 g/L (field application dosage 10 g. a.i/mu), 10 d, FIG. 3
  herbicide tolerance of edited seedlings after spraying: able to tolerate the herbicide
[2]; [5]
  growth of edited material after herbicide: grew normally
[2]; 30 g. a.i/mu, 20 d
  phytotoxicity: about 30%
[4]; [5]
  state of control plants after herbicide: obviously yellow and dead
[4]; 30 g. a.i/mu, 20 d
  survival of wild-type plants after herbicide: all wild-type plants died

## phenthodim
[1]; 20 g.a.i./mu, field seedlings
  phytotoxicity observed: obvious phytotoxicity
[2]; [6]
  phytotoxicity observed: no visible phytotoxicity
[2]; [7]
  phytotoxicity observed: no obvious phytotoxicity
[4]; [6]
  phytotoxicity observed: obvious chlorosis and spots
[4]; [7]
  phytotoxicity observed: serious phytotoxicity
